We go through 5 compounds from patent US7390910B2, “Compounds for treating tumors” (priority 2003, dated 2008).

Experiment [1] has as its system bovine microtubule-associated protein (MAP)-rich tubulin. In kind it is biochemical. As to conditions: 0.3 uM. The method in brief: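 This in vitro polymerization assay used bovine tubulin rich in microtubule-associated proteins, prepared at 1.5 mg/ml in GPEM (PEM buffer containing 1 mM GTP) and cleared by a 12,000×g spin. Tubulin solution (100 μl/well) was dispensed onto duplicate 10 μl test samples. Control wells held 0.3% DMSO. A SpectraMax Plus reader recorded turbidity at 340 nm every minute over 60 min at 24° C.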

The next experiment has as its system KB cells. The experiment in a line: cells. Format: cell-based. As to conditions: 3 days, SRB. The protocol: (§1) Cell Survival Assay: Standard Pharmacological Test Procedure. […] Compounds are incubated with cells for 3 days.
The subject of another experiment is KB85. The experiment in a line: cells. As to conditions: 3 days, SRB. Format: cell-based. The protocol: as §1
For a further experiment, the system named is KBV1. The experiment in a line: cells. Format: cell-based. As to conditions: for IC50: 3 days, SRB. The protocol: as §1
The next experiment relates to S1-M1. The experiment in a line: Cell survival assay (SRB), S1-M1. In kind it is cell-based. As to conditions: S1-M1 cells. The protocol:
as §1

For a further experiment, the system named is S1. The experiment in a line: Cell survival assay (SRB), S1. Format: cell-based. As to conditions: S1 cells. The protocol: as §1
For experiment [2], the system named is Human Melanoma Carcinoma Lox. The experiment in a line: Growth of tumors in nude mice (LOX xenograft). In kind it is in vivo, athymic nu/nu female mice. An excerpt: Growth of Tumors in Nude Mice. […] A p-value ≦0.05 indicates a statistically significant reduction in relative tumor growth of treated group compared to that of the vehicle control group.
For another experiment, the system named is Colo205. The experiment in a line: Cell survival assay (SRB), Colo205. Format: cell-based. As to conditions: Homo sapiens, COLO 205, 72 h, Colo205 cells, 3 days. The protocol: as §1
The next experiment relates to HCT-15. The experiment in a line: Cell survival assay (SRB), HCT-15. Format: cell-based. As to conditions: Homo sapiens; HCT-15 cells. As to the method: as §1
Another experiment deals with LOX. The experiment in a line: Cell survival assay (SRB), LOX. Format: cell-based, human. As to conditions: Homo sapiens; LOX cells. As to the method: as §1
The next experiment relates to NCl-H1299. The experiment in a line: Cell survival assay (SRB), NCl-H1299. In kind it is cell-based. As to conditions: NCl-H1299 cells. As to the method:
as §1

The subject of another experiment is A375. The experiment in a line: Cell survival assay (SRB), A375. In kind it is cell-based. As to conditions: A375 cells. The protocol:
as §1

The test system of another experiment is KM20. The experiment in a line: Cell survival assay (SRB), KM20. In kind it is cell-based. As to conditions: KM20 cells. The protocol:
as §1

Several values for one entry are separate records, joined by “and”; a condition that tells them apart may be missing. Equal values may be shown once. Where only a bound is given, the exact number is not on record here.

One may read the IC50 as the concentration needed to halve the response being measured. A high value points to weaker potency in that assay.

`CN[C@H](C(=O)N[C@H](C(=O)N(C)[C@H](/C=C(\C)C(=O)N1CCC[C@H]1C(=O)OC)C(C)C)C(C)(C)C)C(C)(C)c1ccccc1` [Example 35, N,β,β-trimethyl-L-phenylalanyl-N^1-{(1S,2E)-4-[(2S)-2-(methoxycarbonyl)pyrrolidin-1-yl]-1-isopropyl-3-methyl-4-oxobut-2-enyl}-N^1,3-dimethyl-L-valinamide]: the “Tubulin Polym. % inhibition at 0.3 uM” value in experiment [1] came to 82%. The IC50 in the experiment on KB cells (Homo sapiens, KB, 72 h) turned out to be 1.5 nM; in the experiment on KB85 (72 h), 7.3 nM; in the experiment on KBV1 (Homo sapiens, KB-V1, 72 h), 291 nM; with S1-M1 it was 11 nM; in the experiment with S1, 9 nM. In addition, the “% T/C on day 7” value in experiment [2] (2 mg/kg IV on days 1, 5, 9) came out at 5%. In addition, the “% T/C on day 14” value in experiment [2] (2 mg/kg IV on days 1, 5, 9) came to 1%.

Consider `CN[C@H](C(=O)N[C@H](C(=O)N(C)[C@H](/C=C(\C)C(=O)N1CCOCC1)C(C)C)C(C)(C)C)C(C)(C)c1ccccc1` [Example 27, (2S)-N-[(1S,2E)-1-isopropyl-3-methyl-4-(4-morpholinyl)-4-oxo-2-butenyl]-N,3,3-trimethyl-2-{[(2S)-3-methyl-2-(methylamino)-3-phenylbutanoyl]amino}butanamide], for which the “Tubulin Polym. % inhibition at 0.3 uM” value in experiment [1] came out at 69%. Besides, the IC50 in the experiment with KB cells (Homo sapiens, KB, 72 h) amounted to 43.5 nM; in the experiment with KB85 (72 h) it was 73.5 nM; with KBV1 (Homo sapiens, KB-V1, 72 h), 1300 nM; with Colo205, 23 nM; in the experiment with HCT-15, 26 nM; in the experiment on LOX, 50 nM. In addition, the IC50 in the experiment with S1-M1 was found to be 336 nM; in the experiment on S1, 657 nM; in the experiment with NCl-H1299, 38 nM. Further, the “% T/C on day 7” value in experiment [2] (10 mg/kg IV on days 1, 5, 9) is 13% and 11%. In addition, in experiment [2] (10 mg/kg IV on days 1, 5, 9, day 12), the “% T/C on day 12” value is on record as 2%. Moreover, the “% T/C on day 14” value in experiment [2] (10 mg/kg IV on days 1, 5, 9) is 2%.

`CN[C@H](C(=O)N[C@H](C(=O)N(C)[C@H](/C=C(\C)C(=O)NN)C(C)C)C(C)(C)C)C(C)(C)c1ccccc1` [Example 109, (2S)-N-[(1S,2E)-4-hydrazino-1-isopropyl-3-methyl-4-oxo-2-butenyl]-N,3,3-trimethyl -{[(2S)-3-methyl-2-(methylamino)-3-phenylbutanoyl]amino}butanamide]: the IC50 in the experiment with KB cells worked out at 65 nM; in the experiment with KB85, 227 nM; with KBV1, 2080 nM; in the experiment on A375 it was 19 nM. The “KBV1 % inhibition @ 3000 nM” value in the experiment on KBV1 (3000 nM) was 23%. Also, the “% T/C on day 7” value in experiment [2] (3 mg/kg IV on days 1, 5, 9) was determined as 24%. Further, in [2] (3 mg/kg IV on days 1, 5, 9, day 13), the “% T/C on day 13” value is 8%.

As for `CN[C@H](C(=O)N[C@H](C(=O)N(C)[C@H](/C=C(\C)C=O)C(C)C)C(C)(C)C)C(C)(C)c1ccccc1` [Example 82, N,β,β-trimethyl-L-phenylalanyl-N^1-[(1S,2E)-1-isopropyl-3-methyl-4-oxo-2-butenyl]-N^1,3-dimethyl-L-valinamide], in experiment [1], the “Tubulin Polym. % inhibition at 0.3 uM” value is 51% and 47%. The IC50 was 713 nM with KB cells (Homo sapiens, KB, 72 h); 1330 nM in the experiment on KB85 (72 h); greater than 3000 nM in the experiment on KBV1; 1940 nM with KBV1 (Homo sapiens, KB-V1, 72 h); 5.1 nM in the experiment with Colo205; 1500 nM with HCT-15. Also, the IC50 with LOX is 630 nM; with A375 (Homo sapiens, A-375), 663 nM; in the experiment on KM20, 4.6 nM; in the experiment with NCl-H1299 it was 1570 nM.

In the case of `CN[C@H](C(=O)N[C@H](C(=O)N(C)[C@H](/C=C(\C)C(C)=O)C(C)C)C(C)(C)C)C(C)(C)c1ccccc1` [Example 84, N,β,β-trimethyl-L-phenylalanyl-N^1-[(1S,2E)-1-isopropyl-3-methyl-4-oxo-2-pentenyl]-N^1,3-dimethyl-L-valinamide], the “Tubulin Polym. % inhibition at 0.3 uM” value in [1] was found to be 69%. Besides, the IC50 was found to be 403 nM with KB cells (Homo sapiens, KB, 72 h); 664 nM in the experiment on KB85 (72 h); 2360 nM with KBV1 (Homo sapiens, KB-V1, 72 h); 180 nM with Colo205; 1260 nM in the experiment on HCT-15; 550 nM in the experiment on LOX. In the experiment with NCl-H1299, this compound had a 50% inhibitory concentration (IC50) of 832 nM.
